Data taken from article PMC10819521 (Pharmaceutics, 2024).

How the values were obtained:
[1] = biological target: T1, Human isolated cathepsin L (Homo sapiens, UniProt P07711); test: Cathepsin L assay (chromogenic substrate Z-Phe-Arg-pNA); format: biochemical; details: 50 µM inhibitor, 60 min; 100% = no inhibitor; n.i. = residual activity ≥ 95%; read-out: Percentage residual activity of human cathepsin L
T1 construct: Human isolated cathepsin L (Enzo Life Sciences) was assayed spectrophotometrically; purchased Enzo Life Sciences
Description: (§1) Cathepsin assays. Assays with human cathepsins B, S, L, and K were carried out as described previously. Stock solutions of substrates and inhibitors were prepared in DMSO. The final DMSO concentration was 2%. All test compounds were investigated in duplicate at a concentration of 50 µM to determine residual activities based on endpoints of substrate consumption after 60 min. Ki values were obtained in duplicate measurements with six different inhibitor concentrations, and 60-min-progress curves were analyzed by linear regression. IC50 values were obtained by non-linear regression using the equation vi = v0/(1 + ([I]/IC50), where vi is the product formation rate at different inhibitor concentrations, v0 is the uninhibited product formation rate, [I] is the inhibitor concentration, and IC50 is the half-maximal inhibitory concentration. IC50 values are transformed to Ki values using the Cheng-Prusoff equation.
Human isolated cathepsin L (Enzo Life Sciences) was assayed spectrophotometrically (Cary 50 Bio, Varian) at 405 nm and 37 °C. The assay buffer was 100 mM sodium phosphate buffer pH 6.0, 100 mM NaCl, 5 mM EDTA, and 0.01% Brij 35. For activation, an enzyme stock solution was diluted with assay buffer containing 5 mM DTT and incubated for 30 min at 37 °C. The final concentration of the chromogenic substrate Z-Phe-Arg-pNA was 100 µM (5.88 × Km).
(§2) Cathepsins inhibition. Compounds 4a–l were then evaluated for their ability to inhibit Cat S. Besides Cat S, the set of assays included three related human cathepsins, B, L, and K, all members of the class of lysosomal cysteine proteases (see Table S1 in the Supporting Information). Following reported procedures, [39, 40, 41] percentage or residual activities were determined using chromogenic or fluorogenic peptide substrates, with endpoints measured after 60 min of substrate consumption. To determine Ki values, progress curves were followed over 60 min and analyzed by linear regression. Ki values were then obtained by non-linear regression.

[2] = biological target: T2, Human isolated cathepsin B (Homo sapiens, UniProt P07858); test: Cathepsin B assay (chromogenic substrate Z-Arg-Arg-pNA); format: biochemical; details: 50 µM inhibitor, 60 min; 100% = no inhibitor; n.i. = residual activity ≥ 95%; read-out: Percentage residual activity of human cathepsin B
T2 construct: Human isolated cathepsin B (Calbiochem) was assayed spectrophotometrically; purchased Calbiochem
Description: as §1
Human isolated cathepsin B (Calbiochem) was assayed spectrophotometrically (Cary 50 Bio, Varian) at 405 nm and 37 °C. Assay buffer was 100 mM sodium phosphate buffer pH 6.0, 100 mM NaCl, 5 mM EDTA, 0.01% Brij 35. For activation, an enzyme stock solution was diluted with assay buffer containing 5 mM DTT and incubated for 30 min at 37 °C. The final concentration of the chromogenic substrate Z-Arg-Arg-pNA was 500 µM (0.45 × Km).
as §2

[3] = test system: voltage-gated calcium channels; test: Calcium channel blockade (FLIPR Calcium 6 indicator, SH-SY5Y cells); format: cell-based, human; details: compounds at 10 µM, KCl/CaCl2 stimulation, n.i. = no inhibition
Description: Calcium channel blockade. Evaluation of the calcium channel blockade of compounds 4a–l was performed using the FLIPR Calcium 6 indicator according to a previously established protocol. Briefly, human neuroblastoma cell line SH-SY5Y seeded out on 96-well plate were treated with fluorescent calcium indicator (FLIPR Calcium 6, Molecular Devices). Cells were incubated with indicator for 2 h at 37 °C, facilitating internalization of the indicator. Subsequently, cells were exposed to nimodipine (10 µM, used as reference inhibitor), DMSO (0.1%, used as vehicle control) or our compounds of interest (10 µM) for 10 min also at 37 °C. Following that, cell fluorescence was recorded using a microplate reader (λEx = 485 nm; λEm = 525 nm). Baseline fluorescence was recorded for 5 s. Afterwards, cells were stimulated by the addition of the solution of KCl and CaCl2 (90 and 5 mM, respectively) in order to induce the opening of voltage-gated calcium channels. An increase in fluorescence of calcium indicator after inducing calcium flux was recorded for another 30 s. Data were collected from three independent experiments, with eight technical replicates per experiment. Fluorescence intensity values were normalized to the baseline recorded before the induction of calcium flux. The percentage of inhibition was calculated as a reduction of normalized calcium flux in comparison with the DMSO vehicle control. Outliers were detected using the Grubbs test, and any outlying values were excluded from further analysis.
Calcium channel blockade. The Ca^2+ channel blocking capacity of compounds 4a–l and nimodipine, used as a standard at a concentration of 10 μM, was evaluated according to an established methodology.

Nrf2-ARE = test: Nrf2 transcriptional activation, cell-based luciferase assay; details: CD = concentration required to double the specific activity of the luciferase reporter; 24 h; read-out: Nrf2 Induction Potencies CD
Description: Nrf2 transcriptional activation potencies. The assessment of the Nrf2 transcriptional activation potencies of compounds 4a–l was carried out using the previously described method, and detailed information is provided in the supporting information.
Nrf2 transcriptional activation potencies of compounds 4a–l. […] AREc32 cells were exposed to escalating concentrations of each compound (1, 5, 10, 25, 50, 100, 125, and 150 μM) for 24 h to reach the cytotoxic threshold, followed by measurements of luciferase activity. Melatonin was used as a positive control.
4e H Cl H n.i. 76 n.i. […]
Nrf2 transcriptional activation potencies. The stable NRF2/ARE luciferase reporter HEK293 cell line
(Promega) according to the manufacturer's instructions. To assess cellular viability, the stable

[4] = Oxygen radical absorbance capacity assay (ORAC-FL); details: ORAC-FL method; mean ± SEM
Description: Oxygen radical absorbance capacity assay. The evaluation of the antioxidant activity of compounds 4a–l was carried out using the previously established ORAC-FL method, and detailed information is provided in the supporting information.
Antioxidant assay. The antioxidant assessment was conducted by evaluating the compounds 4a–l through the determination of oxygen radical absorbance capacity (ORAC) using the ORAC-Fluorescein (ORAC-FL) method […]
Oxygen radical absorbance capacity assay.
ORAC-FL method, using fluorescein as a fluorescent probe. Shortly, fluorescein and the antioxidants
2,2'-Azobis(amidinopropane)
(emission wavelength) every minute for 1 hour. […]

[5] = biological target: T3, Human recombinant cathepsin K (Homo sapiens, UniProt P43235); test: Cathepsin K assay (substrate Z-Leu-Arg-AMC); format: biochemical; details: 50 µM inhibitor, 60 min; 100% = no inhibitor; n.i. = residual activity ≥ 95%; read-out: Percentage residual activity of human cathepsin K
T3 construct: purchased Enzo Life Sciences
T3 sequence (P43235 115-329): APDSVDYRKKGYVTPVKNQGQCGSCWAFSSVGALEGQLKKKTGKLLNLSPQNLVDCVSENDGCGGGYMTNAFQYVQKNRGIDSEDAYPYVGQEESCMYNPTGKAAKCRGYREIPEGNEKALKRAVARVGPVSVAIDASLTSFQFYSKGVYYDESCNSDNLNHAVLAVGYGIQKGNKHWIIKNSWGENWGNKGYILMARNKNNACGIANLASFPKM
Description: as §1
Human recombinant cathepsin K (Enzo Life Sciences) was assayed fluorometrically (FLUOstar Optima plate reader, BMG Labtech) with an emission wavelength of 360 nm and an absorption wavelength of 460 nm. The assay buffer was 100 mM sodium citrate pH 5.0, 100 mM NaCl, 1 mM EDTA, 0.01% CHAPS. For activation, an enzyme stock solution was diluted with assay buffer containing 5 mM DTT and incubated for 30 min at 37 °C. The final concentration of the chromogenic substrate Z-Leu-Arg-AMC was 40 µM (13.33 × Km).
as §2

[6] = biological target: T4, Human recombinant cathepsin S (Homo sapiens, UniProt P25774); test: Cathepsin S assay (fluorogenic substrate Z-Phe-Arg-AMC); format: biochemical; details: 50 µM inhibitor, 60 min; 100% = no inhibitor; n.i. = residual activity ≥ 95%; read-out: Percentage residual activity of human cathepsin S
T4 construct: purchased Enzo Life Sciences
Description: as §1
Human recombinant cathepsin S (Enzo Life Sciences) was assayed fluorometrically (FLUOstar Optima plate reader, BMG Labtech) at 25 °C with an emission wavelength of 360 nm and an absorption wavelength of 460 nm. The assay buffer was 100 mM sodium phosphate buffer pH 6.0, 100 mM NaCl, 5 mM EDTA, 0.01% Brij 35. For activation, an enzyme stock solution was diluted with assay buffer containing 5 mM DTT and incubated for 60 min at 37 °C.
as §2

T1 sequence (P07711 114-333): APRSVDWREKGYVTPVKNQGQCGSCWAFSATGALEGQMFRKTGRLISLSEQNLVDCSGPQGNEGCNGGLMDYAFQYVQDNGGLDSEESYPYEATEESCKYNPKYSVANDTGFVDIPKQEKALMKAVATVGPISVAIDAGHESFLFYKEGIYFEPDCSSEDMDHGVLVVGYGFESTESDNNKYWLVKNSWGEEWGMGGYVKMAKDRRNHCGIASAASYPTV
T4 sequence (P25774 115-331): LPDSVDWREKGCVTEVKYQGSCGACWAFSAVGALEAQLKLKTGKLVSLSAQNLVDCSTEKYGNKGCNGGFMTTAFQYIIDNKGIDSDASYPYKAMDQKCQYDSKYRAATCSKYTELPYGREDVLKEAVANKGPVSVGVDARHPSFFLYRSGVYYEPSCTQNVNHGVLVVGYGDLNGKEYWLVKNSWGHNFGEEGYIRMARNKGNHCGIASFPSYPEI

Row | SMILES | remaining activity at 50 µM [1] [%] | remaining activity at 50 µM [2] [%] | Calcium Channel Blockade (%) [3] [%] | EC50 (Nrf2-ARE) [µM] | ORAC [4] | remaining activity at 50 µM [5] [%] | remaining activity at 50 µM [6] [%]
1 | C#CCN(C)C(=O)C1=C(C)NC(C)=C(C(=O)N(C)CC#C)C1c1ccccc1OC [4k, 4-(2-Methoxyphenyl)-N2,N3,5,6-tetramethyl-N3,N5-bis(prop-2-yn-1-yl)-1,4-dihydropyridine-3,5-dicarboxamide] | 92 | 86 | 14 | 69.4 ± 9.1 | n.i. | 82 | 79
2 | C#CCN(C)C(=O)C1=C(C)NC(C)=C(C(=O)N(C)CC#C)C1c1cccc(OC)c1 [4l, 4-(3-Methoxyphenyl)-N2,N3,5,6-tetramethyl-N3,N5-bis(prop-2-yn-1-yl)-1,4-dihydropyridine-3,5-dicarboxamide] | 88 | 86 | 15 | 81.7 ± 11.6 | 0.96 ± 0.07 Trolox equivalents | 81 | 79
